Assay results as given in US8080546B2, “Pyrazolo-pyridinone derivatives and methods of use” (Amgen Inc., priority 2007, dated 2011).
pIC50: −log10 of the molar value. Like-named read-outs stand apart in the source and are kept apart here.

Experiments:
[1] = test system: IL-1; test: LPS induced IL-1 cell based assay (LPS-activated monocytes); conditions: Homo sapiens, Monocyte
Protocol: Lipopolysaccharide-Activated Monocyte TNF Production Assay
Test compounds were evaluated in vitro for the ability to inhibit the production of TNF by monocytes activated with bacterial lipopolysaccharide (LPS). Fresh residual source leukocytes (a byproduct of plateletpheresis) were obtained from a local blood bank, and peripheral blood mononuclear cells (PBMCs) were isolated by density gradient centrifugation on Ficol-Paque Plus (Pharmacia). PBMCs were suspended at 2×10^6/mL in DMEM supplemented to contain 2% FCS, 10 mM, 0.3 mg/mL […], 100 U/mL penicillin G and […] streptomycin sulfate (complete media). Cells were plated into Falcon flat bottom, 96 well culture plates (200 μL/well) and cultured overnight at 37° C. and 6% CO2. Non-adherent cells were removed by washing with 200 μl/well of fresh medium. Wells containing adherent cells (˜70% monocytes) were replenished with 100 μL of fresh medium.
Preparation of Test Compound Stock Solutions
Test compounds were dissolved in […]. Compound stock solutions were prepared to an initial concentration of […]. Stocks were diluted initially to 20-200 μM in complete media. Nine two-fold serial dilutions of each compound were then prepared in complete medium.
Treatment of Cells with Test Compounds and Activation of TNF Production with Lipopolysaccharide
One hundred microliters of each test compound dilution were added to microtiter wells containing adherent monocytes and 100 μL complete medium. Monocytes were cultured with test compounds for 60 min at which time 25 μL of complete medium containing 30 ng/mL lipopolysaccharide from E. coli K532 were added to each well. Cells were cultured an additional 4 hrs. Culture supernatants were then removed and TNF presence in the supernatants was quantified using an ELISA. […]
Standard curve data were fit to a second order polynomial and unknown TNF-α concentrations determined from their OD by solving this equation for concentration. TNF concentrations were then plotted vs. test compound concentration using a second order polynomial. This equation was then used to calculate the concentration of test compounds causing a 50% reduction in TNF production.
Compounds of the invention can also be shown to inhibit LPS-induced release of IL-1β, IL-6 and/or IL-8 from monocytes by measuring concentrations of IL-1β, IL-6 and/or IL-8 by methods well known to those skilled in the art. […] Thus, the compounds of the invention may lower elevated levels of TNF-α, IL-1, IL-6, and IL-8 levels. Reducing elevated levels of these inflammatory cytokines to basal levels or below is favorable in controlling, slowing progression, and alleviating many disease states.

[2] = target: p38 (Homo sapiens, UniProt Q16539); test: p38 in-vitro HTRF enzyme assay; assay type: biochemical; conditions: recombinant human enzyme, read-out: p38 enyme HTRF assay IC50
Protocol: p38 In-Vitro HTRF Enzyme Assay
The compounds of the invention can be tested for their respective affinities for the p38 protein using a conventional p38 in-vitro enzyme activity assay. For example, a P38-alpha HTRF assay may be used to measure the protein's in-vitro phosphorylation activity, and the data analyzed using time resolved fluorimetry techniques (FRET). A p38 HTRF assay is as follows. The kinase reaction buffer for p38α, p38β, p38δ and p38γ HTRF assays consists of 50 mM Tris-pH 7.5, 5 mM MgCl2, 0.1 mg/mL BSA, 100 μM Na3VO4 and 0.5 mM DTT. The HTRF detection buffer contains 100 mM HEPES-pH 7.5, 100 mM NaCl, 0.1% BSA, 0.05% Tween-20, and 10 mM EDTA. Each compound was dissolved in 100% DMSO and serially diluted (3 fold, 10 point) in a polypropylene 96-well microtiter plate (drug plate). The final starting concentration of the compound in the p38α and p38β enzymatic assays was about 1 μM. The final starting concentration of each compound in the p38δ and p38γ enzymatic assays was about 10 μM. The p38α, p38β, p38δ and p38γ kinase reactions were carried out in a polypropylene 96-well black round bottom assay plate in total volume of 30 μL kinase reaction buffer. Appropriate concentration of purified and activated enzyme (recombinant human) was mixed with indicated concentration of ATP and 100 nM GST-ATF2-Avitag, in the presence or absence (HI control) of each compound. In the absence of enzyme, the background was measured as LO control. HI controls and LO controls contained only DMSO. The reaction was allowed to incubate for 1 hour at RT. […] After 60 minutes incubation at room temperature, the assay plate was read in a Discovery Plate Reader. […] The resulting data was analyzed by taking the proportion of substrate phosphorylated in the kinase reaction in the presence of each individual compound and comparing it with that phosphorylated in the presence of DMSO vehicle alone (HI control). The data was calculated using the formula: % control (POC)=(compound−average LO)/(average HI−average LO)*100. […] All results were expressed as the mean±the standard error of the mean. Data acquisition and non-linear regression algorithms were performed using Activity Base v5.2 and XLfit software v4.1 respectively. Additional assay information may be obtained in Park Y W, Cummings R T, Wu L, et al. Homogeneous Proximity Tyrosine Kinase Assays Scintillation Proximity Assay versus Homogeneous Time-Resolved Fluorescence. Analytical Biochemistry.

[3] = test system: THP1 cells; test: Lipopolysaccharide-activated THP1 cell TNF production assay (THP1 cell based); conditions: Homo sapiens, THP-1, LPS-induced TNF-α
Protocol: Lipopolysaccharide-Activated THP1 Cell TNF Production Assay
THP1 cells are resuspended in fresh THP1 media (RPMI 1640, 10% heat-inactivated FBS, 1XPGS, 1XNEAA, plus 30 μM PME) at a concentration of 1E6/mL. One hundred microliters of cells per well are plated in a polystyrene 96-well tissue culture. One microgram per mL of bacterial LPS is prepared in THP1 media and is transferred to the wells. Test compounds are dissolved in 100% DMSO and are serially diluted 3-fold in a polypropylene 96-well microtiter plate (drug plate). HI control and LO control wells contain only DMSO. One microliter of test compound from the drug plate followed by 10 μL of LPS are transferred to the cell plate. The treated cells are induced to synthesize and secrete TNF-α at 37° C. for 3 h. Forty microliters of conditioned media are transferred to a 96-well polypropylene plate containing 110 μL of ECL buffer (50 mM Tris-HCl pH 8.0, 100 mM NaCl, 0.05% Tween 20, 0.05% NaN3 and 1% FBS) supplemented with 0.44 nM MAB610 monoclonal Ab (R&D Systems), 0.34 nM ruthenylated AF210NA polyclonal Ab (R&D Systems) and 44 μg/mL sheep anti-mouse M280 Dynabeads (Dynal). After a 2 h incubation at room temperature with shaking, the reaction is read on the ECL M8 Instrument (IGEN Inc.). A low voltage is applied to the ruthenylated TNF-α immune complexes, which in the presence of TPA (the active component in Origlo), results in a cyclical redox reaction generating light at […]. The amount of secreted TNF-α in the presence of compound compared with that in the presence of DMSO vehicle alone (HI control) is calculated using the formula: % control (POC)=(cpd−average LO)/(average HI−average LO)*100. Data (consisting of POC and inhibitor concentration in μM) is fitted to a 4-parameter equation (y=A+((B−A)/(1+((x/C)^D))), where A is the minimum y (POC) value, B is the maximum y (POC), C is the x (cpd concentration) at the point of inflection and D is the slope factor) using a Levenburg-Marquardt non-linear regression algorithm.

Sequence of p38 (Q16539 whole entry): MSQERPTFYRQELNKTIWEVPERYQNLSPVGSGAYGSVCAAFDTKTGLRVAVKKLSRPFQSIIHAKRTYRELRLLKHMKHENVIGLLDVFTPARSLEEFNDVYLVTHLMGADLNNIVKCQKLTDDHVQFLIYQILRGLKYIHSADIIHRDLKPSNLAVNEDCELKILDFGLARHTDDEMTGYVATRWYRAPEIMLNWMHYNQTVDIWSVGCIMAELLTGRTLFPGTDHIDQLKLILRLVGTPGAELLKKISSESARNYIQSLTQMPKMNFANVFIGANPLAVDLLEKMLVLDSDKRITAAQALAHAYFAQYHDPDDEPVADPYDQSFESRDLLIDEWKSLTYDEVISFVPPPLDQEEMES

Compound	pIC50 ([1]; range symbols)	pIC50 ([2]; range symbols)	pIC50 ([3]; range symbols)	pIC50 ([1]; actual values)	pIC50 ([2]; actual values)	pIC50 ([3]; actual values)
Cn1c(=O)cc(Nc2cc(C(=O)NC3CC3)ccc2F)c2cnn(-c3ccc(F)cc3F)c21 [Example 7, N-cyclopropyl-3-((1-(2,4-difluorophenyl)-7-methyl-6-oxo-6,7-dihydro-1H-pyrazolo[3,4-b]pyridin-4-yl)amino)-4-fluorobenzamide]	7.00 to 7.60	> 7.60	> 7.60			
Cc1ccncc1Nc1cc(=O)n(C)c2c1cnn2-c1cc(F)ccc1F [Example 8, 1-(2,5-difluorophenyl)-7-methyl-4-((4-methyl-3-pyridinyl)amino)-1,7-dihydro-6H-pyrazolo[3,4-b]pyridin-6-one]	6.00 to 6.60	5.30 to 6.00	6.60 to 7.00			
Cn1c(=O)cc(Nc2ccc(F)cc2)c2cnn(-c3c(F)cccc3F)c21 [Example 10, 1-(2,6-difluorophenyl)-4-((4-fluorophenyl)amino)-7-methyl-1,7-dihydro-6H-pyrazolo[3,4-b]pyridin-6-one]	5.30 to 6.00	5.30 to 6.00	6.00 to 6.60			
Cn1c(=O)cc(Nc2cc(C(=O)NC3CC3)ccc2Cl)c2cnn(-c3c(F)cccc3F)c21 [Example 11, 4-chloro-N-cyclopropyl-3-((1-(2,6-difluorophenyl)-7-methyl-6-oxo-6,7-dihydro-1H-pyrazolo[3,4-b]pyridin-4-yl)amino)benzamide]	> 7.60	> 7.60	> 7.60			
Cc1ccc(C(=O)NC2CC2)cc1Oc1cc(=O)n(C)c2c1cnn2-c1cccc(F)c1 [Example 5, N-cyclopropyl-3-((1-(3-fluorophenyl)-7-methyl-6-oxo-6,7-dihydro-1H-pyrazolo[3,4-b]pyridin-4-yl)oxy)-4-methylbenzamide]	6.60 to 7.00	> 7.60	> 7.60			

Now from value to compound:

pIC50 ([1]; range symbols)	pIC50 ([2]; range symbols)	pIC50 ([3]; range symbols)	pIC50 ([1]; actual values)	pIC50 ([2]; actual values)	pIC50 ([3]; actual values)	Compound
6.60 to 7.00	> 7.60	> 7.60				Cc1ccc(C(=O)NC2CC2)cc1Oc1cc(=O)n(C)c2c1cnn2-c1cc(F)ccc1F [Example 22, N-cyclopropyl-3-((1-(2,5-difluorophenyl)-7-methyl-6-oxo-6,7-dihydro-1H-pyrazolo[3,4-b]pyridin-4-yl)oxy)-4-methylbenzamide]
7.00 to 7.60	> 7.60	> 7.60				Cc1ccc(C(=O)NC2CC2)cc1Oc1cc(=O)n(C)c2c1cnn2-c1ccc(F)cc1F [Example 19, N-cyclopropyl-3-((1-(2,4-difluorophenyl)-7-methyl-6-oxo-6,7-dihydro-1H-pyrazolo[3,4-b]pyridin-4-yl)oxy)-4-methylbenzamide]
7.00 to 7.60	> 7.60	> 7.60				Cc1ccc(C(=O)NC2CC2)cc1Oc1cc(=O)n(C)c2c1cnn2-c1c(F)cccc1F [Example 16, N-cyclopropyl-3-((1-(2,6-difluorophenyl)-7-methyl-6-oxo-6,7-dihydro-1H-pyrazolo[3,4-b]pyridin-4-yl)oxy)-4-methylbenzamide]
			8.48	8.92	9.40	CCn1c(=O)cc(Nc2cc(C(=O)NC3CC3)ccc2Cl)c2cnn(-c3ccc(F)cc3F)c21 [Example 27, 4-chloro-N-cyclopropyl-3-((1-(2,4-difluorophenyl)-7-ethyl-6-oxo-6,7-dihydro-1H-pyrazolo[3,4-b]pyridin-4-yl)amino)benzamide]
			8.38	8.68	9.10	Cn1c(=O)cc(Nc2cc(C(=O)NC3CC3)ccc2Cl)c2cnn(-c3ccc(F)cc3)c21 [Example 28, 4-chloro-N-cyclopropyl-3-((1-(4-fluorophenyl)-7-methyl-6-oxo-6,7-dihydro-1H-pyrazolo[3,4-b]pyridin-4-yl)amino)benzamide]
7.00 to 7.60	> 7.60	> 7.60				CCn1c(=O)cc(Oc2cc(C(=O)NC3CC3)ccc2C)c2cnn(-c3ccc(F)cc3)c21 [Example 24, N-cyclopropyl-3-((7-ethyl-1-(4-fluorophenyl)-6-oxo-6,7-dihydro-1H-pyrazolo[3,4-b]pyridin-4-yl)oxy)-4-methylbenzamide]
> 7.60	> 7.60	> 7.60				Cc1ccc(C(=O)NC2CC2)cc1Nc1cc(=O)n(C)c2c1cnn2-c1c(F)cccc1F [Example 15, N-cyclopropyl-3-((1-(2,6-difluorophenyl)-7-methyl-6-oxo-6,7-dihydro-1H-pyrazolo[3,4-b]pyridin-4-yl)amino)-4-methylbenzamide]
